Test results from patent publication US7115258B2, “Vesicular monoamine transporter gene therapy in parkinson's disease” (priority 1998, dated 2006).

Tested on: dopamine release
Assay: Release of stored dopamine from PFVMAA cells
Format: cell-based, rat
Settings: 20 μM A23187 in physiological media, 20 minutes
Protocol: FIG. 3A and FIG. 3B. Release of stored dopamine from PFVMAA. (FIG. 3A) Time course of dopamine release from PFVMAA cells that were preincubated with 1 μM of L-DOPA for 2 hours to store dopamine (intracellular: open bar). After pre-incubation, the media was replaced with fresh media without L-DOPA and dopamine levels in the media (solid bar) were measured at one hour intervals. (FIG. 3B) The dopamine levels in the media (solid bar) and in the cell pellets (open bars) of PFVMAA cells in different calcium conditions. Cells were preincubated with 1 μM L-DOPA in the media for 3 hours, which were replaced with fresh physiological media (control), physiological media with 20 μM A23187 (Sigma), or by calcium-free media with 10 mM EGTA for 20 minutes of further incubation. Data represent the mean±SEM (n=3). n.d., nondetectable levels. n.s., no significant, * p<0.01, Student t-test analysis.
Catecholamine measurements were done in DMEM media (1 ml in each well) except for the experiments on Ca^++ effect which were done in physiological incubation medium consisting of 135 mM NaCl, 3 mM KCl, 2 mM CaCl2, 2 mM MgCl2, 10 mM glucose, 200 μM ascorbic acid, and 10 mM HEPES, pH 7.3.
To investigate the mechanism of dopamine release in the PFVMAA cells, intracellular calcium was manipulated by using calcium-free media and calcium ionophore. […]

## CNc1ccc2oc(C[C@H]3O[C@@]4(CC[C@H]3C)O[C@H]([C@H](C)C(=O)c3ccc[nH]3)[C@H](C)C[C@H]4C)nc2c1C(=O)O [calcium ionophore, A23187]
  effect on dopamine release from PFVMAA cells: trend for increased release of dopamine
